One series concerns the target PDGFRβ (Homo sapiens (Human), UniProt P09619). The experiment in a line: PDGFRβ enzyme inhibition (ADP-Glo assay). It counts as biochemical. Conditions: mean, n = 2 (nintedanib n = 34). (In general: ADP-Glo first removes unused ATP, then detects ADP through luciferase.)
The nature of series [1]: Pharmacokinetic measurements in rats, intra-tracheal dosing. Type of series: in vivo. Conditions: rat; for Lung conc i.t./i.v. Ratio at time 0.1 h / Lung conc i.t./i.v. Ratio at time 1.5 h / Lung conc i.t./i.v. Ratio at time 6 h / Lung conc i.t./i.v. Ratio at time 24 h: i.t. versus i.v.; for concentration at 0.1 h: read-out: lung concentration (nM) at time 0.1 h; for concentration at 1.5 h: read-out: lung concentration (nM) at time 1.5 h; for concentration at 6 h: read-out: lung concentration (nM) at time 6 h; for concentration at 24 h: read-out: lung concentration (nM) at time 24 h; for Kp at 0.1 h / Kp at 1.5 h / Kp at 6 h / Kp at 24 h: lung/plasma; for Kp at 0.1 h: read-out: lung/plasma conc ratio at time 0.1 h; for Kp at 1.5 h: read-out: lung/plasma conc ratio at time 1.5 h; for Kp at 6 h: read-out: lung/plasma conc ratio at time 6 h; for Kp at 24 h: read-out: lung/plasma conc ratio at time 24 h.

Series [2] can be described thus: Pharmacokinetic measurements in rats, intravenous dosing. The conditions noted are these: rat; for concentration at 0.1 h: read-out: lung concentration (nM) at time 0.1 h; for concentration at 1.5 h: read-out: lung concentration (nM) at time 1.5 h; for concentration at 6 h: read-out: lung concentration (nM) at time 6 h; for concentration at 24 h: read-out: lung concentration (nM) at time 24 h; for Kp at 0.1 h / Kp at 1.5 h / Kp at 6 h / Kp at 24 h: lung/plasma; for Kp at 0.1 h: read-out: lung/plasma ratio at time 0.1 h; for Kp at 1.5 h: read-out: lung/plasma ratio at time 1.5 h; for Kp at 6 h: read-out: lung/plasma ratio at time 6 h; for Kp at 24 h: read-out: lung/plasma ratio at time 24 h. It counts as in vivo.

The nature of another series: PAMPA permeability assay. It counts as in vitro ADME. Conditions: PAMPA experimental recovery. (In general: The PAMPA barrier holds no transporters, so it reflects passive diffusion.)
Setting [3] is: male, CD, lung, other: intra-tracheal.
Where [4] appears, read: male, CD, other: intra-tracheal.

For orientation: Ki means the dissociation constant of the complex between target and ligand, obtained from inhibition or displacement. The t½ is how long it takes for the measured level to halve. The low end stands for rapid decline, the high end for slow decline.

Structures are written as SMILES. A value given as a limit tells only on which side of the number the result lay.

Chain of PDGFRβ (P09619 33-1106): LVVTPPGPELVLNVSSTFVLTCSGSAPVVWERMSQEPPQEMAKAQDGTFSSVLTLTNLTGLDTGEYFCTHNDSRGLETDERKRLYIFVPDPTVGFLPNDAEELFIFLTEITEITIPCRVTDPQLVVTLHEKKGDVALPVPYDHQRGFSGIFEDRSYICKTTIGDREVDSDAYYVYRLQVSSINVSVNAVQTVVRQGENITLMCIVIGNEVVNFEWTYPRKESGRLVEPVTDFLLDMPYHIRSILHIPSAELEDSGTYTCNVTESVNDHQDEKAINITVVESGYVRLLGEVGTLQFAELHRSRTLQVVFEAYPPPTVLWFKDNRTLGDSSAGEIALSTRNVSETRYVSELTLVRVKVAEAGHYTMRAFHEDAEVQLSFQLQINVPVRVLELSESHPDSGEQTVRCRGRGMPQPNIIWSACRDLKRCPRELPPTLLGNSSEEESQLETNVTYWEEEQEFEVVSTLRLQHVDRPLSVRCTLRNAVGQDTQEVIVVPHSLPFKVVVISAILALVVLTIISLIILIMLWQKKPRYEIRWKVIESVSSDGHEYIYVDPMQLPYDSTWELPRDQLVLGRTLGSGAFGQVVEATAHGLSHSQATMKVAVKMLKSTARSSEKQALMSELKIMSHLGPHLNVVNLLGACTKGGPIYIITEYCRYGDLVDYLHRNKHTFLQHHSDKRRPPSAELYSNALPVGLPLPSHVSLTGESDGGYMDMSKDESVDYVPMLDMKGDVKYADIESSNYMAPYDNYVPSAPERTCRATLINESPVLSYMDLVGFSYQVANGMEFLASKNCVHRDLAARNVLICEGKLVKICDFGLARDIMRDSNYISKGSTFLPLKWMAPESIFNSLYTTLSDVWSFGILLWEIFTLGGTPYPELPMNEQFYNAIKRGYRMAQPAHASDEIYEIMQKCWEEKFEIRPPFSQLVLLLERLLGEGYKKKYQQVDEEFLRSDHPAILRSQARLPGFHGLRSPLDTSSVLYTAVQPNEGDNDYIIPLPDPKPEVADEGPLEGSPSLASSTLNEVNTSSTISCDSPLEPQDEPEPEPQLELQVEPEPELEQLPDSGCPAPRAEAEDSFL

`COC(=O)c1cc2c(cc1C)/C(=C(/Nc1ccc(S(=O)(=O)NCCN3CCN(C)CC3)cc1)c1ccccc1)C(=O)N2` [Example 1, (Z)-Methyl 5-methyl-3-(((4-(N-(2-(4-methylpiperazin-1-yl)ethyl)sulfamoyl)phenyl)amino)(phenyl)methylene)-2-oxoindoline-6-carboxylate] displayed a Ki at PDGFRβ of 9.93 nM.
With `COC(=O)c1cc2c(cc1C)/C(=C(/Nc1ccc(C(=O)NCC3CCN(C)CC3)cc1)c1ccccc1)C(=O)N2` [Example 3, (Z)-Methyl 5-methyl-3-(((4-(((1-methylpiperidin-4-yl)methyl)carbamoyl)phenyl)amino)(phenyl)methylene)-2-oxoindoline-6-carboxylate], the “Lung conc i.t./i.v. Ratio at time 0.1 h” value in series [1] (0.1 h) is 3. The “Lung conc i.t./i.v. Ratio at time 1.5 h” value in series [1] (1.5 h) is given as 7. In addition, in series [1] (6 h), the “Lung conc i.t./i.v. Ratio at time 6 h” value is reported as 15. In addition, in series [1] (24 h), the “Lung conc i.t./i.v. Ratio at time 24 h” value is recorded as 14.
Regarding `COC(=O)c1cc2c(cc1C)/C(=C(/Nc1ccc(C(=O)NCCN3CCCN(C)CC3)cc1)c1ccccc1)C(=O)N2` [Example 5, (Z)-Methyl 5-methyl-3-(((4-((2-(4-methyl-1,4-diazepan-1-yl)ethyl)carbamoyl)phenyl)amino)(phenyl)methylene)-2-oxoindoline-6-carboxylate], in series [1] (setting [3]), the concentration at 0.1 h was 5510 nM, the concentration at 1.5 h was determined as 4020 nM, the concentration at 6 h worked out at 1070 nM and the concentration at 24 h was 1670 nM. In series [1] (setting [4]), the Kp at 0.1 h was 371, the Kp at 1.5 h is over 2280, the Kp at 6 h is over 606 and the Kp at 24 h was over 951. Besides, in series [1] (0.1 h), the “Lung conc i.t./i.v. Ratio at time 0.1 h” value turned out to be 7. The “Lung conc i.t./i.v. Ratio at time 1.5 h” value in series [1] (1.5 h) worked out at 12. The “Lung conc i.t./i.v. Ratio at time 6 h” value in series [1] (6 h) was 2. Also, the “Lung conc i.t./i.v. Ratio at time 24 h” value in series [1] (24 h) was determined as 7. For the same molecule, in series [2] (male, CD, lung, iv), the concentration at 0.1 h stood at 765 nM, the concentration at 1.5 h was 330 nM, the concentration at 6 h came to 499 nM and the concentration at 24 h was 247 nM. In series [2] (male, CD, iv), the Kp at 0.1 h came out at 127, the Kp at 1.5 h was over 188, the Kp at 6 h is over 284 and the Kp at 24 h is over 140. Also, the inhibition constant Ki at PDGFRβ was 12.9 nM.
In the case of `COC(=O)c1cc2c(cc1C)/C(=C(/Nc1ccc(C(=O)NCCN3CCC(N(C)C)CC3)cc1)c1ccccc1)C(=O)N2` [Example 6, (Z)-Methyl 3-(((4-((2-(4-(dimethylamino)piperidin-1-yl)ethyl)carbamoyl)phenyl)amino)(phenyl)methylene)-5-methyl-2-oxoindoline-6-carboxylate], in series [1] (setting [3]), the concentration at 0.1 h is 9830 nM, the concentration at 1.5 h was 7570 nM, the concentration at 6 h turned out to be 7820 nM and the concentration at 24 h amounted to 6440 nM. For the same molecule, in series [1] (setting [4]), the Kp at 0.1 h was determined as 472, the Kp at 1.5 h was over 4450, the Kp at 6 h is over 4600 and the Kp at 24 h was over 3790. The “Lung conc i.t./i.v. Ratio at time 0.1 h” value in series [1] (0.1 h) was determined as 9.8. The “Lung conc i.t./i.v. Ratio at time 1.5 h” value in series [1] (1.5 h) was found to be 8.0. For the same molecule, the “Lung conc i.t./i.v. Ratio at time 6 h” value in series [1] (6 h) worked out at 8.3. In addition, the “Lung conc i.t./i.v. Ratio at time 24 h” value in series [1] (24 h) was found to be 7.7. In series [2] (male, CD, lung, iv), the concentration at 0.1 h turned out to be 1000 nM, the concentration at 1.5 h was found to be 949 nM, the concentration at 6 h is 939 nM and the concentration at 24 h was 837 nM. Besides, in series [2] (male, CD, iv), the Kp at 0.1 h came out at 77, the Kp at 1.5 h was over 558, the Kp at 6 h was over 552 and the Kp at 24 h is over 492. The same molecule returned a Ki on PDGFRβ of 10.3 nM.
Take `COC(=O)c1cc2c(cc1C)/C(=C(/Nc1ccc(C(=O)NCC(=O)N3CCN(CCO)CC3)cc1)c1ccccc1)C(=O)N2` [Example 7, (Z)-Methyl 3-(((4-((2-(4-(2-hydroxyethyl)piperazin-1-yl)-2-oxoethyl)carbamoyl)phenyl)amino)(phenyl)methylene)-5-methyl-2-oxoindoline-6-carboxylate]: in series [1] (setting [3]), the concentration at 0.1 h amounted to 1530 nM, the concentration at 1.5 h was 886 nM, the concentration at 6 h amounted to 116 nM and the concentration at 24 h stood at 27 nM. In series [1] (setting [4]), the Kp at 0.1 h is 39, the Kp at 1.5 h is over 265, the Kp at 6 h is over 35 and the Kp at 24 h was over 8. Besides, the “Lung conc i.t./i.v. Ratio at time 6 h” value in series [1] (6 h) was over 42. The “Lung conc i.t./i.v. Ratio at time 24 h” value in series [1] (24 h) is given as over 10. Besides, in series [2] (male, CD, lung, iv), the concentration at 0.1 h stood at 99 nM and the concentration at 1.5 h is 44 nM. Besides, in series [2] (male, CD, iv), the Kp at 0.1 h stood at 2 and the Kp at 1.5 h is 12. The molecule further had a Ki on PDGFRβ of 5.76 nM.
The molecule `COC(=O)c1cc2c(cc1C)/C(=C(/Nc1ccc(C(=O)NCC(=O)N3CCN(C)CC3)cc1)c1ccccc1)C(=O)N2` [Example 8, (Z)-Methyl 5-methyl-3-(((4-((2-(4-methylpiperazin-1-yl)-2-oxoethyl)carbamoyl)phenyl)amino)(phenyl)methylene)-2-oxoindoline-6-carboxylate] gave a Ki at PDGFRβ of 8.12 nM.
On to `COC(=O)c1cc2c(cc1C)/C(=C(/Nc1ccc(C(=O)NCCN3CCNC(=O)C3)cc1)c1ccccc1)C(=O)N2` [Example 9, (Z)-Methyl 5-methyl-2-oxo-3-(((4-((2-(3-oxopiperazin-1-yl)ethyl)carbamoyl)phenyl)amino)(phenyl)methylene)indoline-6-carboxylate], for which the “Lung conc i.t./i.v. Ratio at time 0.1 h” value in series [1] (0.1 h) was 12. Besides, in series [1] (1.5 h), the “Lung conc i.t./i.v. Ratio at time 1.5 h” value was 51. In addition, the “Lung conc i.t./i.v. Ratio at time 6 h” value in series [1] (6 h) turned out to be 45. The “Lung conc i.t./i.v. Ratio at time 24 h” value in series [1] (24 h) came out at 21.
The molecule `COC(=O)c1cc2c(cc1C)/C(=C(/Nc1ccc(C(=O)NCCN3CCC(O)CC3)cc1)c1ccccc1)C(=O)N2` [Example 12, (Z)-Methyl 3-(((4-((2-(4-hydroxypiperidin-1-yl)ethyl)carbamoyl)phenyl)amino)(phenyl)methylene)-5-methyl-2-oxoindoline-6-carboxylate] registered a Ki at PDGFRβ of 8.75 nM.
`COC(=O)c1cc2c(cc1C)/C(=C(/Nc1ccc(C(=O)NC3CCN(C)CC3)cc1)c1ccccc1)C(=O)N2` [Example 18, (Z)-Methyl-5-methyl-3-(((4-((1-methylpiperidin-4-yl)carbamoyl)phenyl)amino)(phenyl)methylene)-2-oxoindoline-6-carboxylate]: the “% Recovery” value in “PAMPA permeability assay” came to 84.5%. In addition, the concentration at 0.1 h in series [1] (i.t. dose 0.1 (nintedanib 0.42), 0.1 h) is 6533 nM; in series [2] (i.v. dose 0.1 (nintedanib 0.42), 0.1 h), 638 nM. The concentration at 1.5 h is on record as 5987 nM in series [1] (i.t. dose 0.1 (nintedanib 0.42), 1.5 h) and 306 nM in series [2] (i.v. dose 0.1 (nintedanib 0.42), 1.5 h). The concentration at 6 h in series [1] (i.t. dose 0.1 (nintedanib 0.42), 6 h) is listed as 2351 nM; in series [2] (i.v. dose 0.1 (nintedanib 0.42), 6 h), 201 nM. In series [1] (i.t. dose 0.1 (nintedanib 0.42), 24 h), the concentration at 24 h is recorded as 4523 nM. Moreover, in series [2] (i.v. dose 0.1 (nintedanib 0.42)), the t½ is 5.1 h.

(Values after US11208381B2, “Indole derivatives and their use as protein kinase inhibitors” (RespiVert Limited, priority 2016, dated 2021).)
